# Results published in patent US11547682B2, “Use of formin agonists in overcoming brain tumor radio- and chemo-resistance by targeting tumor microtubes” (The University of Toledo, priority 2019, dated 2023).
# How the values were obtained:
# Pat9 HGG neurospheres = assay: 3D matrigel invasion assay of patient-derived HGG neurospheres (Pat9); type: cell-based, human; settings: within 24 h; for neurosphere invasion (change in area over T0): 10-50 μM at embedding, refreshed daily, maintained through 48 h, relative to controls
# Procedure: Pat8 and Pat9 HGG neurospheres were embedded in matrigel and allowed to invade. […] Images were captured at embedding (T0) and every 24 h. Invasion area was calculated as increase in area over T0 Pat9 or Pat8 neurosphere areas (FIGS. 3A-3B, respectively). Both Pat9 and Pat8 neurospheres robustly invaded through 48 h, similar to control vehicle-treated neurospheres.
# It was previously shown in U87 spheroids that IMM invasion blockade was reversible. Whether IMM anti-invasion effects were reversible was assessed (FIGS. 4A-4B). Pat9 neurospheres were incubated with vehicle or IMMs for 48 h. Drug washouts were then performed with drug-free media and invasion continued for 48 h. As before, IMM removal released invasion suppression relative to neurospheres held in IMMs for 96 h. The live-dead cell dye Draq7 was then used on invading neurospheres treated with IMMs. […] Unexpectedly, when started at 48 h post-invasion in B27-treated control invading neurospheres, IMM treatment for 48 h thereafter induced robust cell death (FIG. 4C).
# (§1) Neurospheres formed spontaneously in isolated patient sample monolayer cells. Once spheres detach from monolayers, they were collected using wide-orifice pipette tips and moved to poly-HEMA (Sigma) coated U-bottom 96-well plates. Neurospheres were used upon reaching 200-250 μm diameter. Once neurospheres reached 350 μm, they were dissociated and re-plated in poly-HEMA U-bottom plates at 2000 cells/well.
# (§2) 3D invasion assays were as described. Briefly, a thin layer of 5 mg/ml GFR matrigel (Corning) was placed in 8-well chamber glasses (Lab-tek). Neurospheres were added and topped with thin-layer matrigel. Matrigel polymerized for 45 min at 37° C. before addition of 250 μl of media with IMMs. Invasions were imaged at time zero (T0) and every 24 h for experimental durations. Invaded spheroids/spontaneous neurospheres were imaged using an EVOS inverted microscope with an Olympus 4×UplanFL N0.13 PhP objective lens. All measurements were completed with MetaMorph software (Molecular Devices).
# Pat8 HGG neurospheres = assay: 3D matrigel invasion assay of patient-derived HGG neurospheres (Pat8); type: cell-based, human; settings: 10-50 μM at embedding, refreshed daily, within 24 h, maintained through 48 h, relative to controls
# Procedure: Pat8 and Pat9 HGG neurospheres were embedded in matrigel and allowed to invade. At embedding, neurospheres were treated with 10-50 μM IMM01 or IMM02 and refreshed daily. Images were captured at embedding (T0) and every 24 h. Invasion area was calculated as increase in area over T0 Pat9 or Pat8 neurosphere areas (FIGS. 3A-3B, respectively). Both Pat9 and Pat8 neurospheres robustly invaded through 48 h, similar to control vehicle-treated neurospheres.
# as §1
# as §2, with “All measurements were completed with MetaMorph software (Molecular Devices).” left out
# [1] = system: tumor microtubes (TMs) in Pat9 neurospheres; assay: Tumor microtube (TM) formation and length in neurosphere edge cells (IF, Metamorph); type: cell-based, human; settings: for tumor TM length upon drug washout: 50 μM
# Procedure: FIGS. 6A-6E: Tumor microtube shortening and amoeboid cell morphologies in IMM-treated HGG patient-derived neurospheres. […] Left-most boxes indicate areas of magnification shown. Scale bar (upper panel)=25 μm; (lower panel 100 μm). FIGS. 6B-6C show tumor TM lengths were measured using Metamorph software from cell nuclei to tumor TM ends. TMs measured from N>196 cells across three replicate experiments. TMs were measured in control (FIG. 6B), or drug washout experiments using 50 μM IMM01 or IMM02 where m=maintained drug and r=washout (FIG. 6C). Data are shown as scatter plots in FIGS. 6B-6C, or histograms (FIGS. 6B′, 6C′). […] FIGS. 6D, 6D′ show cellular morphologies measured in neurosphere edge cells and EI were calculated by dividing cell long by short axes, where EI=1 is a rounded cell, and E>1 is an elongated cell. N>196 cells across three replicate experiments. Data are shown as scatter plots (FIG. 6D, 6E), or histograms (FIG. 6D′, FIG. 6E′).
# FIG. 11: Tumor TM measurements in HGG patient neurospheres. Pat9 neurospheres invaded for 96 h in matrigel in the presence of DMSO, 50 μM IMM01, or 50 μM IMM02. Tumor TMs were measured using Metamorph software by drawing lines (colored lines) along the length of tumor TMs from cell bodies to the end of the tumor TM using brightfield images.
# IF was performed on fixed Pat9 neurospheres treated with or without IMMs for 96 h (FIGS. 5A-5B, respectively). mDia1, mDia2, F-actin, β-tubulin, or de-tyrosinated β-tubulin (glu-tubulin) were visualized (to assess stabilized microtubules). Invaded control neurospheres had diffuse invasive fronts, with extensive symmetrical invasion away from the central neurosphere core. Both mDia1 and mDia2 were diffusely cytoplasmic. […] Some cells were enriched in traditional parallel lamellar actin stress fibers and others with numerous radial F-actin-enriched filopodia-like structures (FIG. 8). […]
# Cell protrusions were confirmed by IF to robustly express punctate Connexin-43 (FIG. 6A). […] Tumor TM length was measured in neurosphere edge cells in IMM-treated Pat9 neurospheres. […]
# mDia = settings: cited from earlier work
# U251 monolayers = settings: 2D U251 monolayers; cited from earlier work
# p53 = settings: cited from earlier work
Structure (SMILES),neurosphere invasion (change in area over T0) (Pat9 HGG neurospheres),neurosphere invasion (change in area over T0) (Pat8 HGG neurospheres),tumor TM length upon drug washout [1],mDia autoinhibition / F-actin polymerization (mDia),"cell cycle progression, apoptosis/multi-nucleation (U251 monolayers)",p53 expression (p53),neurosphere invasion (Pat9 HGG neurospheres; 1 μM),"tumor TM formation ([1]; 1 μM, within 24 h)"
"CC(C)(C)NC(=S)N/N=C/c1ccc(O)cc1O [IMM01, 2-[(2,4-dihydroxyphenyl)methylene]-N-(1,1-dimethylethyl)-hydrazinecarbothioamide]",significantly halted invasion,significantly halted invasion,recovered to controls,relieved mDia autoinhibition to induce F-actin polymerization,"neither changes in cell cycle progression, nor increases in apoptosis/multi-nucleation",–,–,–
"C/C(=N\NC(=S)NC(C)(C)C)c1cc(F)cc(F)c1O [IMM02, N1-(tert-butyl)-2-[1-(3,5-difluoro-2-hydroxyphenyl)ethylidene]hydrazine-1-carbothioamide]",significantly halted invasion,significantly halted invasion,recovered to controls,relieved mDia autoinhibition to induce F-actin polymerization,"neither changes in cell cycle progression, nor increases in apoptosis/multi-nucleation",–,–,–
O=C1NC(=S)N(c2cccc(Br)c2)C(=O)/C1=C/c1ccco1 [SMIFH2],–,–,–,–,–,downregulated p53 expression,–,–
"COC(=O)Nc1nc2ccc(C(=O)c3cccs3)cc2[nH]1 [nocadazole, nocodazole, reference compound]",–,–,–,–,–,–,halted,halted
